Results on 3 compounds are retold here after US11906523B2, “Signaling conjugates and methods of use” (VENTANA MEDICAL SYSTEMS, INC., priority 2012, dated 2024).

A short description of data set [1]: UV-Vis absorbance spectra of signaling conjugates and chromophores. It is filed as physicochemical.
Description: The wavelength at which the maximum fraction of light is absorbed by a substance is referred to as λmax. Because this wavelength is absorbed to the greatest extent, it is typically referred to as the absorbance wavelength. […] While λmax designates the wavelength of maximum absorption, the FWHM designates the breadth of the spectral absorbance.
Trace A corresponds to the signaling conjugate used for FIG. 15(A) and trace B corresponds to the signaling conjugated used for FIG. 15(B); note that each signaling conjugate was analyzed with spectrometry in solution prior to staining and on the slide subsequent to having detected the HER2 (the dashed traces representing the spectra obtained on the tissue).
Data set [2] is described as follows: UV-Vis spectra of fast red and fast blue. The conditions noted are these: ethyl acetate solutions, FIG. 8(B). It is filed as physicochemical. The source says: While providing a range of new colors for the recognition of targets within biological samples is useful alone, the presently disclosed signaling conjugates are particularly useful in multiplexed assays, as well as assays using translocation probes. FIG. 8(A) is a photomicrograph of a dual stain of two gene probes on section of lung tissue testing for ALK rearrangements associated with non-small cell lung cancer. FIG. 8(B) illustrates UV-Vis spectra of fast red and fast blue in ethyl acetate solutions. The 3′ probe was detected using fast red and the 5′ probe was detected using fast blue. FIGS. 9(A) and 9(B) illustrate the traces of FIG. 8(B) separately. […] Comparing this range to the color wheel, the expected color corresponding to the spectral absorption characteristic would be either red or orange. The range of absorption is so large it essentially covers all of those wavelengths one would expect to result in a red or an orange color. […] Again, referring to the color wheel in FIG. 6(A), the absorption from 525-625 nm covers nearly half of the color wheel with blue, indigo, and violet being complementary.

[3] abbreviates: absorption spectrum of signaling conjugate.

For `CN(C)c1ccc2c(-c3ccc(C(=O)NCCc4ccc(O)cc4)cc3C(=O)[O-])c3ccc(N(C)C)cc3[o+]c2c1` [5-TAMRA-tyramide conjugate], in data set [1] (setting [3]), the “full width of the peak at the half maximum absorbance (FWHM)” value is recorded as “approximately 40 nm” and the λmax worked out at 552 nm. In the case of `O=C([O-])C1=NN(c2ccc(S(=O)(=O)[O-])cc2)C(=O)C1N=Nc1ccc(S(=O)(=O)[O-])cc1.[Na+].[Na+].[Na+]` (stereo not shown) [Tartrazine], in data set [1] (diazo chromophore moiety itself), the λmax result is on record as “about 427 nm”. Regarding Fast blue, the “strong absorption wavelength range” value in data set [2] is recorded as 525-625 nm.
